Laboratory results: US8003630B2, “Combinatorial therapies for the treatment of neoplasias using the opioid growth factor receptor” (The Penn State Research Foundation, priority 2004, dated 2011)

Tests used:
[1] = tested on: SCC-1 SCCHN cells; assay: SCC-1 SCCHN tumors in athymic nude mice (Examples 1c and 2)
Experimental: Tumor dimensions were recorded every day beginning on the day that the tumors were considered measurable.

[2] = tested on: SCC-1 cells; assay: Cell proliferation assays of SCC-1 cells (MTS or cell counting), Example 8; type: cell-based, human; conditions: for rates of growth over the 4 day period: slopes of growth curves; for difference in cell number between reversal group and group continuing drug exposure: within 48 hr after withdrawal
Experimental: The UM-SCC-1 cell line (SCC-1) was derived from a well-differentiated recurrent squamous cell carcinoma in the floor of the mouth of a person (25). This cell line was obtained from The University of Michigan, Cancer Research Laboratory (Thomas E. Carey, Ph.D., Director). CAL-27 human squamous cell carcinoma cell line, derived from a poorly differentiated carcinoma of the tongue in a person ([…]), was obtained from the American Type Culture Collection (Manassas, Va.). Both cell lines were grown in Dulbecco's MEM (modified) media supplemented with 10% fetal calf serum, 1.2% sodium bicarbonate, and antibiotics (5,000 Units/ml penicillin, 5 mg/ml streptomycin, 10 mg/ml neomycin). The cell cultures were maintained in a humidified atmosphere of 7% CO2/93% air at 37° C.
Cells were seeded at equivalent amounts into either 6-well or 96-well plates (Falcon) and counted 24 hr later to determine plating efficiency.
The dosage of carboplatin selected was based on previous reports (27, 28), as well as preliminary studies in our laboratory.
Cell number was recorded either by using the MTS proliferation bioassay (Cell Titer 96 One Solution, Promega, Madison, Wis.) and measuring absorbency after 4 hr on a Biorad (Model 3550) plate reader at 490 nm with a 750 nm background absorbance screening, or by directly counting cells. The MTS assay utilized 10 wells/treatment. For manual counts, cells were harvested by trypsinization with 0.25% trypsin/0.53 mM EDTA, centrif uiged, and counted with a hemacytometer. Cell viability was determined by trypan blue staining. At least two aliquots per well, and 4-10 wells/treatment, were counted at each time for manual counting.
For some experiments, the rate of growth over a 96-hr period of time was calculated using linear regression analyses. The slopes of the lines (number of cells/hr) were compared by analysis of variance. All calculations were performed with GraphPad Prism software.

[3] = target: T1, OGFr (Homo sapiens, UniProt Q9NZT2); assay: Receptor binding analysis of OGFr in SCC-1 tumors from treated mice; conditions: OGFr in SCC-1 tumors from mice of the treatment group; means ± SEM
T1 construct: Tumor tissues from some mice in each treatment group were removed at the time of death; from tissue; host or cells: SCC-1 squamous cell carcinoma xenograft tumors grown subcutaneously in nude mice
T1 sequence (Q9NZT2 1-677): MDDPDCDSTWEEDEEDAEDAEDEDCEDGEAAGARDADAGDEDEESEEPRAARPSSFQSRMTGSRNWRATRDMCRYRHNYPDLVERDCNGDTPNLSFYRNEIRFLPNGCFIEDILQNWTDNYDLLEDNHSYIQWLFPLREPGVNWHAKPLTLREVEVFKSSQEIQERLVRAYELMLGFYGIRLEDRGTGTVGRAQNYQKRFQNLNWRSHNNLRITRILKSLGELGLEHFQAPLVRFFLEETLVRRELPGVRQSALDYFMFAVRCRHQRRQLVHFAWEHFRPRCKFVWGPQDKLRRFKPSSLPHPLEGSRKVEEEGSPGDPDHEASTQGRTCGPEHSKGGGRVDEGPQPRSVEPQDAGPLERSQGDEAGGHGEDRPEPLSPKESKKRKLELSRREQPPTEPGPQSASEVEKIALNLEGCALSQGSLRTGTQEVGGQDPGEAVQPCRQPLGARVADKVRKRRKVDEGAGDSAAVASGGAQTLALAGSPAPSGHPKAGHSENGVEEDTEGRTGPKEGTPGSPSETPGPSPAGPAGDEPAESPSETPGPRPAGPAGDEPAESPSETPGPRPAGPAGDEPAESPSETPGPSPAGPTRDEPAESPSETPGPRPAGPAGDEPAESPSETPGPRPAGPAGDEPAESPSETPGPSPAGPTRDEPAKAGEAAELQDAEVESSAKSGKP
Experimental: Tumor tissues from some mice in each treatment group were removed at the time of death, washed free of blood and connective tissue, and immediately frozen in liquid nitrogen. Tissues were assayed following the procedures published previously [ 16]. Saturation binding isotherms were generated using GraphPad Prism software; binding affinity (Kd) and capacity (Bmax) values were provided by the computer software.

[4] = tested on: MiaPaCa-2 cells; assay: Growth curves of MiaPaCa-2 cells, cell proliferation (MTT) assay, absorbency; conditions: MiaPaCa-2, 5-FU 10^-5 M and/or OGF 10^−6 M
Source text: Cells were counted using a standard MTT assay. In general, each data point represents the average absorbency taken from 10 wells/treatment; error bars represent the S.E.M.

[5] = tested on: advanced unresectable pancreatic adenocarcinoma; conditions: some patients; cited from earlier work
[6] = tested on: PANC-1 cells; assay: Growth assay of PANC-1 cells in 6-well plates; type: cell-based, human; conditions: 72 hr, OGF 10^−6 M and/or gemcitabine 10^−8 M
Experimental: MIA PaCa-2 and PANC-1 human pancreatic adenocarcinoma cell lines were purchased from the American Type Culture Collection (Manasass, Va.). MIA PaCa-2 cells were derived from an undifferentiated epithelial carcinoma occurring in the body and tail of the pancreas in a person. The PANC-1 cells were derived from an undifferentiated carcinoma from the head of the pancreas in a person. MIA PaCa-2 and PANC-1 cells were grown in Dulbecco's MEM (modified) media; media was supplemented with 10% fetal calf serum, 1.2% sodium bicarbonate, and antibiotics (5,000 Units/ml penicillin, 5 mg/ml streptomycin, 10 mg/ml neomycin), and the cells were maintained in a humidified atmosphere of 7% CO2/93% air at 37° C.
MIA PaCa-2 cells were seeded at equivalent amounts into either 75 cm^2 flasks, 6-well plates, or 96-well plates (Falcon) and counted 24 hr later to determine plating efficiency. […]
Cell number was recorded either by using a mitogenic bioassay, the MTS assay (Cell Titer 96 One Solution, Promega, Madison, Wis.), and measuring absorbency after 4 hr on a Biorad (Model 3550) plate reader at 490 nm, or by counting cells. For manual counts, cells were harvested with a solution of 0.25% trypsin/0.53 mM EDTA, centrif uiged, and counted with a hemacytometer. Cell viability was determined by trypan blue staining. At least two aliquots per flask or 4-10 wells/treatment were counted at each time.

[7] = SCC-1, 48 hr, OGF 10^−6 M and/or paclitaxel 10^−8 M
[8] = SCC-1, 72 hr, OGF 10^−6 M and/or paclitaxel 10^−8 M
[9] = SCC-1, 96 hr, OGF 10^−6 M and/or paclitaxel 10^−8 M

Question: Which results are given for `CC(=O)O[C@H]1C(=O)[C@@]2(C)[C@H]([C@H](OC(=O)c3ccccc3)[C@]3(O)C[C@H](OC(=O)[C@H](O)[C@@H](NC(=O)c4ccccc4)c4ccccc4)C(C)=C1C3(C)C)[C@]1(OC(C)=O)CO[C@@H]1C[C@@H]2O` [paclitaxel]?
Answer: average life span ([1]; 50-day study): 34.3 ± 3.1 days; mice with tumors ([1]; day 13 after tumor cell inoculation): 66%; observations on organs after premature death ([1]; histological analysis): distended abdomens with associated megacolon; mice that had died by day 40 ([1]; nude mice with SCC-1 tumors): 75%; body weight less than controls ([1]; nude mice with SCC-1 tumors, day 20): 11%; body weight less than controls, OGF and paclitaxel/OGF treated mice ([1]; nude mice with SCC-1 tumors, day 50): 28%; inhibition at 0.01 µM ([2]; Homo sapiens, read-out: inhibition of cell growth relative to control levels): 8.8 to 26%; reduction of cell number from control levels [2, 7]: ~33%; reduction of cell number from control levels [2, 8]: 25%; reduction of cell number from control levels [2, 9]: 51%; rates of growth over the 4 day period ([2]; SCC-1): notably reduced from control values; difference in cell number between reversal group and group continuing drug exposure ([2]; SCC-1): did not differ; Bmax, fmol/mg protein [3]: 27.8 ± 1.6 fmol/mg protein

Question: With [Met^5]-enkephalin [OGF] as the compound, how does the “decrease in cell number from controls” value ([4]; 24 h) read?
Answer: 7.1%

Question: What about the “decrease in cell number from controls” value ([4]; 48 h) of the same compound?
Answer: 7.0%

Question: And the “decrease in cell number from controls” value ([4]; 72 h)?
Answer: 6.9%

Question: And the “decrease in cell number from controls” value ([4]; 96 h)?
Answer: 14.2%

Question: And the “latency time for measurable (62.5 mm^3) tumors” value ([1]; after tumor cell inoculation)?
Answer: ≤ 17 days

Question: And the “latency to a visible tumor” value ([1]; after tumor cell inoculation)?
Answer: ≤ 11 days

Question: What about the “reduction of tumor size versus control mice” value ([1]; second timepoint (4th day of measurable tumors)) of the same compound?
Answer: 26%

Question: And the “delay in visible tumor development” value ([1]; versus control mice)?
Answer: ~4 days

Question: And the “reduction of cell number from control levels” value (from here on “reduction of cell number”) ([2]; SCC-1, MTS, 48-96 hr, OGF 10^−6 M alone or with carboplatin 10^−7 M)?
Answer: 8-10%

Question: And the “reduction of cell number” value [2, 7]?
Answer: approximately 10%

Question: What about the “reduction of cell number” value [2, 8] of the same compound?
Answer: 10%

Question: And the “reduction of cell number” value [2, 9]?
Answer: 23%

Question: And the “decrease from control levels in absorbency readings” value ([2]; SCC-1, opioids 10^−6 M daily)?
Answer: 19%

Question: What about the “rates of growth over the 4 day period” value ([2]; SCC-1) of the same compound?
Answer: notably reduced from control values

Question: What about the “difference in cell number between reversal group and group continuing drug exposure” value ([2]; SCC-1) of the same compound?
Answer: 16%

Question: And the “Bmax, fmol/mg protein” value [3]?
Answer: 27.2 ± 2.2 fmol/mg protein

Question: What about the “longest survival of patients” value [5] of the same compound?
Answer: ≤ 23 months

Question: What about the “fewer cells than in control cultures” value [6] of the same compound?
Answer: 31%
